Values quoted from earlier work, collected in EP0407583A1, “DERIVATIVES OF DICHLOR[…] ACYLAMIDO[…] AND INSECTICIDAL, FU[…] HEMATOCIDAL PREPARATIONS BASED ON THEM” (priority 1989, dated 1990).

Tested on: mice and rats
Conditions: for mice and rats; cited from earlier work

For `COP(=O)(OC)C(O)C(Cl)(Cl)Cl` (stereo not shown) [Known composition, 0,0-dimethyl(1-hydroxy-2,2,2-trichloroethyl)phosphonate], the LD50 is listed as 225 to 1200 mg/kg.
